Tests used:
AMPKα2β1γ1 = target: T1, AMPKα2β1γ1 (Homo sapiens, UniProt P54619+P54646+Q9Y478); experiment: HTRF KinEASE activation assay with bacterially-expressed, phosphorylated purified AMPKα2β1γ1 complex; format: biochemical; conditions: varying concentrations, 30 mins incubation, cell-free; FIG. 1
T1 construct: His; made in house
Experimental: Varying concentrations of compound 1 was incubated with phosphorylated purified AMPK α2β1γ1 for 30 mins. AMPK activity was determined using the HTRF KinEASE assay kit and results are presented as the ratio of 665/620 nm (STK1 phosphorylation).
The AMPKα2β1γ1 complex was expressed in bacteria and purified through the His-α subunit by nickel purification, purified through gel filtration and phosphorylated by incubation with CaMKKβ, and then further purified through a final gel filtration purification step. Phosphorylated purified AMPK was incubated with varying concentrations of ligand for 30 mins along with substrate and reagents from the HTRF-KinEASE Cisbio assay kit (STK S1 Kit). Phosphorylation of the substrate was measured by incubating with donor and acceptor antibodies for 2 h at room temperature as per the manufacturer's protocol (and Coulerie et al., (2016), see below) and phosphorylated peptide detected by performing HTRF.

[1] = system: U-2 OS Flp-In T-REx cells (phosphorylation of acetyl-CoA carboxylase, ACC); experiment: pACC HTRF assay: phosphorylation of the AMPK substrate ACC in U-2 OS Flp-In T-REx cells; format: cell-based; conditions: varying concentrations, 30 mins at 37 C, media lacking FBS; FIG. 2
Experimental: U-2 OS cells were treated with varying concentrations of compound 1 for 30 mins at 37 C. Phosphorylation of ACC was assessed using the HTRF Cisbio (pACC kit).
U-2 OS Flp-In T-REx cells were seeded at 50 K in a 96-well plate and left overnight at 37 C in DMEM GlutaMAX (Thermo Fisher Scientific) supplemented with 10% (vol/vol) FBS and 100 U/ml penicillin G, and 100 μg/ml streptomycin. Cells were treated for 30 mins with varying concentrations of compound 1 in media lacking FBS and then cells were lysed in 50 μl of Cisbio lysis buffer #1 supplemented with blocking solution as per the manufacturer's protocol (Cisbio). Cells were lysed for 30 mins at room temperature before 16 μl of lysate was incubated with 4 μl of the HTRF antibodies (1:40 dilution of the acceptor and donor (p)ACC antibodies, as per the manufacturers protocol). Lysates were incubated overnight with the antibodies before 665 nm/620 nm ratio was determined using a MolecularDevices i3 plate reader (with a HTRF cartridge add-on). The results are plotted as fold activation compared to the respective AMPK complex without any compound.

T1 sequence (P54646 whole entry): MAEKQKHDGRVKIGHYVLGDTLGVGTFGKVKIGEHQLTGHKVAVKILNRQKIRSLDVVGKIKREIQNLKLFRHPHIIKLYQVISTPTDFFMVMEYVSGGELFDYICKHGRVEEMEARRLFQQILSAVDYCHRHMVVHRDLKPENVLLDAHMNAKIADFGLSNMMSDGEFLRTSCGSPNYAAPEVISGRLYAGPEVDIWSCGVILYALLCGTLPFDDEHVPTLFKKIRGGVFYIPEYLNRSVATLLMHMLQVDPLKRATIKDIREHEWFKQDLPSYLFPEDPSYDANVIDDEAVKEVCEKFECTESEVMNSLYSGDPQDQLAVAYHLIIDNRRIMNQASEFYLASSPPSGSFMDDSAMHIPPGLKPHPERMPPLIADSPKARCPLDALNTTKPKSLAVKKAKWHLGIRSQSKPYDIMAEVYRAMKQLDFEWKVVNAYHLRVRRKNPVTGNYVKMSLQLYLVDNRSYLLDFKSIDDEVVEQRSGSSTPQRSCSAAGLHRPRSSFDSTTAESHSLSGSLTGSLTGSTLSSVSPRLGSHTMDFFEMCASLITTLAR
T1 sequence (Q9Y478 whole entry): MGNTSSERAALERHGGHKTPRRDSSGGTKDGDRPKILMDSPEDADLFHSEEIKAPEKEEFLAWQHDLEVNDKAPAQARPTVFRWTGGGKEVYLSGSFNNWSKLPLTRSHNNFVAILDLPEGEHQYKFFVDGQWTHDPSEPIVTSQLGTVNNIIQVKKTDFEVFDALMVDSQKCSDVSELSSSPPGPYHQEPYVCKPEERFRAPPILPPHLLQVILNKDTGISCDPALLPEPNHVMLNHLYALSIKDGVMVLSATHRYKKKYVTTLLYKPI
T1 sequence (P54619 whole entry): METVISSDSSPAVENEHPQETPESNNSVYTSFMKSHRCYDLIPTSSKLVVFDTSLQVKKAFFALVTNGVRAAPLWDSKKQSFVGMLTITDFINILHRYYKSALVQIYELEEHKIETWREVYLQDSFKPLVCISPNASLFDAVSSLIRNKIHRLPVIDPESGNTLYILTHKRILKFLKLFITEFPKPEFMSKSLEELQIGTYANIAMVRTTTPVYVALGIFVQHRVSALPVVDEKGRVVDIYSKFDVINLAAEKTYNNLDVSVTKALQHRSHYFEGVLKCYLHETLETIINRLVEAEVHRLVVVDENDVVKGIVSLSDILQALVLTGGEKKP

## COc1cc(O)cc(/C=C\c2cccc(O)c2)c1 [compound 1, (Z)-3,3′-Dihydroxy-5-methoxystilbene]
AMPKα2β1γ1
  AMPK activity (STK1 substrate phosphorylation, 665 nm/620 nm ratio): allosterically activates AMPKα2β1γ1
[1]
  Phosphorylation of ACC (fold activation relative to untreated cells): increased the phosphorylation of the AMPK substrate, ACC, in a dose-dependent manner
